Test results: ChEMBL document CHEMBL1201862, “PubChem BioAssay data set” (2004)
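48-hour exposure; five concentrations; linearly interpolated endpoints. Abbreviation: GI50, concentration required for 50% inhibition of growth.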 The source made the active and inactive calls. Rule as the data show it: active = GI50 up to about 1.1 µM and inactive = higher.

How the values were obtained:
Assay in all cases: DTP human tumour cell line panel, 48 h
LOX IMVI = test system: LOX IMVI
U-251 = test system: U-251
SK-OV-3 = test system: SK-OV-3
UO-31 = test system: UO-31
HCC 2998 = test system: HCC 2998
RXF 393 = test system: RXF 393
TK-10 = test system: TK-10
UACC-62 = test system: UACC-62
786-0 = test system: 786-0
SNB-19 = test system: SNB-19
M14 = test system: M14
KM12 = test system: KM12
SF-539 = test system: SF-539
SK-MEL-2 = test system: SK-MEL-2
A549 = test system: A549
OVCAR-4 = test system: OVCAR-4
NCI-H226 = test system: NCI-H226
SNB-75 = test system: SNB-75

Measured: GI50

COC(=O)/C(=N/NC(=O)C[N+](C)(C)C)C(C(=O)OC)C(=O)C(=O)Nc1ccc(F)cc1 (configuration not stated)
inactive: LOX IMVI > 100 µM | U-251 > 100 µM | SK-OV-3 > 100 µM | UO-31 > 100 µM | HCC 2998 > 100 µM | RXF 393 > 100 µM | TK-10 > 100 µM | UACC-62 > 100 µM | 786-0 > 100 µM | SNB-19 > 100 µM | M14 > 100 µM | KM12 > 100 µM | SF-539 > 100 µM | SK-MEL-2 > 100 µM | A549 > 100 µM | OVCAR-4 > 100 µM | NCI-H226 > 100 µM | SNB-75 > 100 µM

[Zn+2][N+]12CCN3CCN4CCN(CC1)[PH]432 (configuration not stated)
inactive: LOX IMVI > 100 µM | U-251 > 100 µM | SK-OV-3 > 100 µM | UO-31 > 100 µM | HCC 2998 > 100 µM | RXF 393 > 100 µM | TK-10 > 100 µM | UACC-62 > 100 µM | 786-0 > 100 µM | SNB-19 > 100 µM | M14 > 100 µM | KM12 > 100 µM | SF-539 > 100 µM | SK-MEL-2 > 100 µM | A549 > 100 µM | OVCAR-4 > 100 µM | NCI-H226 > 100 µM | SNB-75 > 100 µM

C[C@]12CCC[C@H](OC=O)C1(O)C[C@H](C(=O)O)CC2 (some centres not stated)
inactive: LOX IMVI > 100 µM | U-251 > 100 µM | SK-OV-3 > 100 µM | UO-31 > 100 µM | HCC 2998 > 100 µM | RXF 393 > 100 µM | TK-10 > 100 µM | UACC-62 16.5 µM | 786-0 > 100 µM | SNB-19 > 100 µM | M14 > 100 µM | KM12 > 100 µM | SF-539 > 100 µM | SK-MEL-2 > 100 µM | A549 > 100 µM | OVCAR-4 > 100 µM | NCI-H226 > 100 µM | SNB-75 > 100 µM

Cc1cc2c(c(C(=O)O)c1C)-c1cccc(Cl)c1C2=O
inactive: LOX IMVI > 100 µM | U-251 > 100 µM | SK-OV-3 > 100 µM | UO-31 > 100 µM | HCC 2998 > 100 µM | RXF 393 > 100 µM | TK-10 > 100 µM | UACC-62 > 100 µM | 786-0 > 100 µM | SNB-19 > 100 µM | M14 > 100 µM | KM12 > 100 µM | SK-MEL-2 > 100 µM | A549 > 100 µM | OVCAR-4 > 100 µM | NCI-H226 > 100 µM | SNB-75 > 100 µM

CN(C)CCNC(=O)c1ccccc1Nc1c(Cl)cccc1Cl
inactive: LOX IMVI 12.8 µM | U-251 11.6 µM | SK-OV-3 13.7 µM | UO-31 4.52 µM | HCC 2998 10.6 µM | RXF 393 1.69 µM | TK-10 8.13 µM | UACC-62 16.1 µM | 786-0 4.62 µM | SNB-19 16.1 µM | M14 15.4 µM | SF-539 13.1 µM | A549 10.9 µM | OVCAR-4 14.6 µM | NCI-H226 11.5 µM | SNB-75 2.07 µM

CCOc1ccc(/N=C/c2cccc3cccnc23)cc1
inactive: U-251 > 100 µM | SK-OV-3 > 100 µM | HCC 2998 > 100 µM | RXF 393 > 100 µM | TK-10 > 100 µM | UACC-62 > 100 µM | 786-0 > 100 µM | SNB-19 > 100 µM | M14 44.7 µM | KM12 39.8 µM | SF-539 > 100 µM | SK-MEL-2 > 100 µM | A549 > 100 µM | OVCAR-4 > 100 µM | NCI-H226 > 100 µM | SNB-75 > 100 µM

CC(C)N1C(C)[C@@H](c2ccccc2)O[P@]1(=O)CC1=CCCCC1 (some centres not stated)
inactive: LOX IMVI 74.1 µM | U-251 > 100 µM | SK-OV-3 > 100 µM | UO-31 74 µM | HCC 2998 99.3 µM | RXF 393 > 100 µM | TK-10 > 100 µM | UACC-62 51.5 µM | 786-0 > 100 µM | SNB-19 > 100 µM | M14 97.5 µM | KM12 > 100 µM | SF-539 > 100 µM | SK-MEL-2 > 100 µM | A549 > 100 µM | NCI-H226 > 100 µM | SNB-75 > 100 µM

CC1(C)OC(COCCOCCCCCO)C(COCCOCCCCCO)O1 (configuration not stated)
inactive: LOX IMVI > 100 µM | U-251 > 100 µM | SK-OV-3 > 100 µM | UO-31 > 100 µM | HCC 2998 > 100 µM | RXF 393 > 100 µM | TK-10 > 100 µM | UACC-62 82.6 µM | 786-0 > 100 µM | SNB-19 > 100 µM | M14 > 100 µM | KM12 > 100 µM | SK-MEL-2 > 100 µM | A549 > 100 µM | OVCAR-4 > 100 µM | NCI-H226 > 100 µM | SNB-75 > 100 µM
